According to patent EP2325185A1, “Plk inhibitor” (GPC Biotech AG, priority 2009, dated 2011):

What was measured:
Type in all cases: cell-based
Plk1 = Plk1 (Homo sapiens, UniProt P53350); test: Cellular Plk1 kinase activity: nucleophosmin (B23) Ser4 phosphorylation in HCT116 cells (MSD electrochemiluminescence); conditions: nocodazole-treated, 4 hours compound exposure, read-out: Biochemical IC50 Nucleophosmin assay
Procedure: Cellular Plk1 kinase activity was measured by quantification of nucleophosmin (B23) Ser4 phosphorylation in a cancer cell line. Nucleophosmin (B23) Ser4 is phosphorylated by Plkl, and this phosphorylation can be specifically detected by cross-reactivity of a phospho-Mekl/2 antibody that is able to recognizes a mitotic-specific phosphorylated form of nucleophosmin (B23) in a nocodazole dependent way (Zhang, H., Shi, X., Paddon, H., Hampong, M., Dai, W., and Pelech, S. (2004) B23/Nuleophosmin Serin 4 Phosphorylation Mediates Mitotic Functions of Polo-like Kinase 1. J. Biol. Chem., 279(34), 35726-35734).
Briefly, HCT116 cells (ATCC, Order No. CCL-247) were plated in 96 well dishes 24 hours prior to nocodazole treatment at 25 000 cells per well. Cells were then treated with 100 ng/ml nocodazole (Sigma-Aldrich, # M1404). […]
The cell lysates were thawed at room temperature and 40 µl were incubated on 96-well MULTI-ARRAY High Bind plates (L11XB; MSD) for 1.5 - 2 hours at room temperature. […] Then, 150 µl of 1x Read Buffer T (R92TC; MSD) were carefully added to each well and the plates were quantitatively detected for each well with a SECTOR™ Imager 6000 (MSD).
Inhibitory activity of the compound (IC) was calculated as % inhibition of nucleophosmin (B23) Ser4 phosphorylation compared to cells […].

HT-29 = test: SRB cell proliferation assay, HT-29; conditions: Homo sapiens, HT-29; 72 hours, SRB; read-out: CELLULAR IC50 HT-29
Procedure: (§1) Cells were exposed to the test compound racemate at various concentrations appropriate to determine an IC50 for 72 hours. Cell proliferation was measured using the SRB assay according to Shekan et al (J Natl Cancer Inst (1990) 82, 1107-112) in order to estimate the IC50 values shown in Table 3. Briefly, cells were plated in 96 well dishes 24 hours prior to compound addition at the densities specified in Table 5.1. The assay was terminated with the addition of cold TCA to a final concentration of 10% after growth medium has been removed and the plates were incubated over night at 4°C. The plates were then washed 5 times with water and 100µl of a Sulforhodamine B solution ([…]) was added to each well. The plates were then incubated for 10 minutes at room temperature before removal of unbound dye by washing with 1% acetic acid. The bound dye was solubilised with 10 mM Trizma base and the absorbance read at OD520.
(§2) Inhibitory activity of the compound (IC) was calculated as % inhibition of cell proliferation compared to cells treated with the solvent (DMSO).
(§3) Table 8.1: 18-Cell Line Panel

HCT 116 = test: SRB cell proliferation assay, HCT 116; conditions: Homo sapiens, HCT-116; 72 hours, SRB; read-out: CELLULAR IC50 HCT 116
Procedure: as §1, §2, §3

IMR-90 = test: SRB cell proliferation assay, IMR-90; conditions: Homo sapiens, IMR-90; 72 hours, SRB; read-out: CELLULAR IC50 IMR-90
Procedure: as §1, §2, §3

Chain of Plk1 (P53350 whole entry, species assumed): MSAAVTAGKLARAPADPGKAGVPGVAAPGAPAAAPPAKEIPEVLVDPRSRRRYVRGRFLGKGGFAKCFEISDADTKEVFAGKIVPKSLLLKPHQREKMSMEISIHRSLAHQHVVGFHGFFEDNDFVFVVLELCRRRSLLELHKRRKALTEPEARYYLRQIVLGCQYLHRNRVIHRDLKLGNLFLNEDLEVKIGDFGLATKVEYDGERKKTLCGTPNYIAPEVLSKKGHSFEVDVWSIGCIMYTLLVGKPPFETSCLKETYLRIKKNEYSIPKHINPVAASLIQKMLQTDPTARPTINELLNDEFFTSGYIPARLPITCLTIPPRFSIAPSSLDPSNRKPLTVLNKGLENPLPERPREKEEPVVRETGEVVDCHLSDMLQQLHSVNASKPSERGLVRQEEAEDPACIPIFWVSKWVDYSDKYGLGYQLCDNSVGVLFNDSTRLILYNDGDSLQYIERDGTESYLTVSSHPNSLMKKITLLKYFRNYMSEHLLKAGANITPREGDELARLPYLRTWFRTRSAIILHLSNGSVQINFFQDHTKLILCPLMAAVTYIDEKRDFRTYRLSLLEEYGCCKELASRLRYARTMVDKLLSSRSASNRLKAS

In the case of `CCC1C(=O)N(C)c2cnc(Nc3ccc(C(=O)N[C@H]4CC[C@H](N5CCN(CC6CC6)CC5)CC4)cc3OC)nc2N1N(C)C` (mixture of isomers) [racemic mixture containing compound 1 and (S)-enantiomer, N-[trans-4-(4-Cyclopropylmethyl-piperazin-1-yl)-cyclohexyl]-4-(8-dimethylamino-7-ethyl-5-methyl-6-oxo-5,6,7,8-tetrahydro-pteridin-2-ylamino)-3-methoxy-benzamide], the IC50 (Plk1) is reported as less than 100 nM, the IC50 (HT-29) is reported as less than 1000 nM and the IC50 (HCT 116) is reported as less than 1000 nM. The IC50 (IMR-90) was greater than 1000 nM.
